What was measured:
[1] = target: Serine/threonine-protein kinase 38-like (Homo sapiens) (UniProt Q9Y2H1); conditions: Compound concentration 1000.0 nM
[2] = target: Phosphorylase b kinase regulatory subunit alpha, liver isoform (Homo sapiens) (UniProt P46019); conditions: Compound concentration 1000.0 nM
[3] = target: Mitogen-activated protein kinase 15 (Homo sapiens) (UniProt Q8TD08); conditions: Compound concentration 1000.0 nM
[4] = target: Cyclin-dependent kinase 11A (Homo sapiens) (UniProt Q9UQ88); conditions: Compound concentration 1000.0 nM
[5] = target: Cyclin-dependent kinase-like 5 (Homo sapiens) (UniProt O76039); conditions: Compound concentration 1000.0 nM
[6] = target: Alpha-2A adrenergic receptor (Homo sapiens) (UniProt P08913); conditions: Compound concentration 10.0 uM
[7] = target: Mitogen-activated protein kinase 12 (Homo sapiens) (UniProt P53778); conditions: Compound concentration 1000.0 nM
[8] = target: Ephrin type-B receptor 4 (Homo sapiens) (UniProt P54760); conditions: Compound concentration 1000.0 nM
[9] = target: Serine/threonine-protein kinase 32A (Homo sapiens) (UniProt Q8WU08); conditions: Compound concentration 1000.0 nM
[10] = target: Phosphatidylinositol 4-phosphate 3-kinase C2 domain-containing subunit beta (Homo sapiens) (UniProt O00750); conditions: Compound concentration 1000.0 nM
[11] = target: cGMP-dependent protein kinase 1 (Homo sapiens) (UniProt Q13976); conditions: Compound concentration 1000.0 nM
[12] = target: Serine/threonine-protein kinase SIK3 (Homo sapiens) (UniProt Q9Y2K2); conditions: Compound concentration 1000.0 nM
[13] = target: Eukaryotic translation initiation factor 2-alpha kinase 1 (Homo sapiens) (UniProt Q9BQI3); conditions: Compound concentration 1000.0 nM
[14] = target: Mitogen-activated protein kinase kinase kinase 11 (Homo sapiens) (UniProt Q16584); conditions: Compound concentration 1000.0 nM
[15] = target: Mitogen-activated protein kinase 8 (Homo sapiens) (UniProt P45983); conditions: Compound concentration 1000.0 nM
[16] = target: Mitogen-activated protein kinase 11 (Homo sapiens) (UniProt Q15759); conditions: Compound concentration 1000.0 nM
[17] = target: Serine/threonine-protein kinase 3 (Homo sapiens) (UniProt Q13188); conditions: Compound concentration 1000.0 nM
[18] = target: GABA-A receptor; anion channel (Rattus norvegicus) (UniProt O09028+P15431+P18506+P18508+P19969+P20236+P23574+P23576+P28471+P28473+P30191+P62813+P63079+P63138+Q91ZM7+Q9ES14); conditions: Compound concentration 10.0 uM
[19] = target: Calcium/calmodulin-dependent protein kinase kinase 2 (Homo sapiens) (UniProt Q96RR4); conditions: Compound concentration 1000.0 nM
[20] = target: Casein kinase I isoform alpha-like (Homo sapiens) (UniProt Q8N752); conditions: Compound concentration 1000.0 nM
[21] = target: 1-phosphatidylinositol 3-phosphate 5-kinase (Homo sapiens) (UniProt Q9Y2I7); conditions: Compound concentration 1000.0 nM
[22] = target: Dual specificity mitogen-activated protein kinase kinase 7 (Homo sapiens) (UniProt O14733); conditions: Compound concentration 1000.0 nM
[23] = target: Activin receptor type-2B (Homo sapiens) (UniProt Q13705); conditions: Compound concentration 1000.0 nM
[24] = target: Serine/threonine-protein kinase VRK2 (Homo sapiens) (UniProt Q86Y07); conditions: Compound concentration 1000.0 nM
[25] = target: Uncharacterized serine/threonine-protein kinase SBK3 (Homo sapiens) (UniProt P0C264); conditions: Compound concentration 1000.0 nM
[26] = target: Muscarinic acetylcholine receptor M4 (Homo sapiens) (UniProt P08173); conditions: Compound concentration 10.0 uM
[27] = target: Phosphatidylinositol 4-phosphate 5-kinase type-1 gamma (Homo sapiens) (UniProt O60331); conditions: Compound concentration 1000.0 nM
[28] = target: Mitotic checkpoint serine/threonine-protein kinase BUB1 (Homo sapiens) (UniProt O43683); conditions: Compound concentration 1000.0 nM
[29] = target: Cyclin-dependent kinase 9 (Homo sapiens) (UniProt P50750); conditions: Compound concentration 1000.0 nM
[30] = target: Bone morphogenetic protein receptor type-1B (Homo sapiens) (UniProt O00238); conditions: Compound concentration 1000.0 nM
[31] = target: Tyrosine-protein kinase TXK (Homo sapiens) (UniProt P42681); conditions: Compound concentration 1000.0 nM
[32] = target: Discoidin domain-containing receptor 2 (Homo sapiens) (UniProt Q16832); conditions: Compound concentration 1000.0 nM
[33] = target: Serine/threonine-protein kinase NLK (Homo sapiens) (UniProt Q9UBE8); conditions: Compound concentration 1000.0 nM
[34] = target: Myosin light chain kinase (Homo sapiens) (UniProt Q32MK0); conditions: Compound concentration 1000.0 nM
[35] = target: Mitogen-activated protein kinase kinase kinase 3 (Homo sapiens) (UniProt Q99759); conditions: Compound concentration 1000.0 nM
[36] = target: Ribosomal protein S6 kinase alpha-2 (Homo sapiens) (UniProt Q15349); conditions: Compound concentration 1000.0 nM
[37] = target: Cyclin-dependent kinase-like 1 (Homo sapiens) (UniProt Q00532); conditions: Compound concentration 1000.0 nM
[38] = tested on: Receptor-type tyrosine-protein kinase FLT3 (Homo sapiens), P36888 [D835Y]; conditions: Compound concentration 1000.0 nM
[39] = target: Serine/threonine-protein kinase BRSK1 (Homo sapiens) (UniProt Q8TDC3); conditions: Compound concentration 1000.0 nM
[40] = target: TGF-beta receptor type-1 (Homo sapiens) (UniProt P36897); conditions: Compound concentration 1000.0 nM
[41] = target: MAP kinase-activated protein kinase 2 (Homo sapiens) (UniProt P49137); conditions: Compound concentration 1000.0 nM
[42] = target: Tyrosine-protein kinase ITK/TSK (Homo sapiens) (UniProt Q08881); conditions: Compound concentration 1000.0 nM
[43] = target: Hepatocyte growth factor receptor (Homo sapiens) (UniProt P08581); conditions: Compound concentration 1000.0 nM
[44] = tested on: Epidermal growth factor receptor (Homo sapiens), P00533 [L861Q]; conditions: Compound concentration 1000.0 nM

Chain of Uncharacterized serine/threonine-protein kinase SBK3 (Homo sapiens) (P0C264 whole entry): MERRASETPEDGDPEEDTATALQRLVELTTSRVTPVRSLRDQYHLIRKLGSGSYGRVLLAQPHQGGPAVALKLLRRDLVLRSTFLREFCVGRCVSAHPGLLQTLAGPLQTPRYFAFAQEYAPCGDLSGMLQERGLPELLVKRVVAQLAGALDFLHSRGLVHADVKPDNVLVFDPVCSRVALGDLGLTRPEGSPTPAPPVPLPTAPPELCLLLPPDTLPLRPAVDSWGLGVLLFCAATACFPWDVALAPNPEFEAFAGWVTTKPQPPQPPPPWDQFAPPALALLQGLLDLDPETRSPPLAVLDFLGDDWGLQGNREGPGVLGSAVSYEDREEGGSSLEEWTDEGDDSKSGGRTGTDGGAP
Chain of Cyclin-dependent kinase-like 1 (Homo sapiens) (Q00532 whole entry): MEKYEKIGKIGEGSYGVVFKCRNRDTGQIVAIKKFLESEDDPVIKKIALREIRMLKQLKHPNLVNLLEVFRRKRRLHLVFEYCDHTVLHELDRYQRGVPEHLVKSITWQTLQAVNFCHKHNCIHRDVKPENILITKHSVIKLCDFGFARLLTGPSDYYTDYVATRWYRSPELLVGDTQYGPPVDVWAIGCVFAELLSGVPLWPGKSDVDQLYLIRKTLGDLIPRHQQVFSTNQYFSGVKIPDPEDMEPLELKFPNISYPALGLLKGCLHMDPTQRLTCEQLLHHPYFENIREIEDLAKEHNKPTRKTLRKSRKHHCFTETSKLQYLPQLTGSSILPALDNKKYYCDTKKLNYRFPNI
Chain of Activin receptor type-2B (Homo sapiens) (Q13705 whole entry): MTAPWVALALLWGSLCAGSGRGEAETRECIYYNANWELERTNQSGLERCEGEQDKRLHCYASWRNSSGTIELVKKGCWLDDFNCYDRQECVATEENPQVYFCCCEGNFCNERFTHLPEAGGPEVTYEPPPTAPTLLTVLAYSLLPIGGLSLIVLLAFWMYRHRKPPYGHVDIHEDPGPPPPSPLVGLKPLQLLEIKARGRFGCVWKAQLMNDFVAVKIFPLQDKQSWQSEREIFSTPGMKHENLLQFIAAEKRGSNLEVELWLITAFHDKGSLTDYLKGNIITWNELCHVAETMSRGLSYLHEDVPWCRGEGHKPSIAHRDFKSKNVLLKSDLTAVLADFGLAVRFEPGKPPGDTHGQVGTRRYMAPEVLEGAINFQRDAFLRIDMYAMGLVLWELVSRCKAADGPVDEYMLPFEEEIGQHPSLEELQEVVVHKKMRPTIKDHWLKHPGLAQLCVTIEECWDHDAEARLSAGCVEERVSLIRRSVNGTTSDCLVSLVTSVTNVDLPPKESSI
Chain of Serine/threonine-protein kinase SIK3 (Homo sapiens) (Q9Y2K2 whole entry, looked up): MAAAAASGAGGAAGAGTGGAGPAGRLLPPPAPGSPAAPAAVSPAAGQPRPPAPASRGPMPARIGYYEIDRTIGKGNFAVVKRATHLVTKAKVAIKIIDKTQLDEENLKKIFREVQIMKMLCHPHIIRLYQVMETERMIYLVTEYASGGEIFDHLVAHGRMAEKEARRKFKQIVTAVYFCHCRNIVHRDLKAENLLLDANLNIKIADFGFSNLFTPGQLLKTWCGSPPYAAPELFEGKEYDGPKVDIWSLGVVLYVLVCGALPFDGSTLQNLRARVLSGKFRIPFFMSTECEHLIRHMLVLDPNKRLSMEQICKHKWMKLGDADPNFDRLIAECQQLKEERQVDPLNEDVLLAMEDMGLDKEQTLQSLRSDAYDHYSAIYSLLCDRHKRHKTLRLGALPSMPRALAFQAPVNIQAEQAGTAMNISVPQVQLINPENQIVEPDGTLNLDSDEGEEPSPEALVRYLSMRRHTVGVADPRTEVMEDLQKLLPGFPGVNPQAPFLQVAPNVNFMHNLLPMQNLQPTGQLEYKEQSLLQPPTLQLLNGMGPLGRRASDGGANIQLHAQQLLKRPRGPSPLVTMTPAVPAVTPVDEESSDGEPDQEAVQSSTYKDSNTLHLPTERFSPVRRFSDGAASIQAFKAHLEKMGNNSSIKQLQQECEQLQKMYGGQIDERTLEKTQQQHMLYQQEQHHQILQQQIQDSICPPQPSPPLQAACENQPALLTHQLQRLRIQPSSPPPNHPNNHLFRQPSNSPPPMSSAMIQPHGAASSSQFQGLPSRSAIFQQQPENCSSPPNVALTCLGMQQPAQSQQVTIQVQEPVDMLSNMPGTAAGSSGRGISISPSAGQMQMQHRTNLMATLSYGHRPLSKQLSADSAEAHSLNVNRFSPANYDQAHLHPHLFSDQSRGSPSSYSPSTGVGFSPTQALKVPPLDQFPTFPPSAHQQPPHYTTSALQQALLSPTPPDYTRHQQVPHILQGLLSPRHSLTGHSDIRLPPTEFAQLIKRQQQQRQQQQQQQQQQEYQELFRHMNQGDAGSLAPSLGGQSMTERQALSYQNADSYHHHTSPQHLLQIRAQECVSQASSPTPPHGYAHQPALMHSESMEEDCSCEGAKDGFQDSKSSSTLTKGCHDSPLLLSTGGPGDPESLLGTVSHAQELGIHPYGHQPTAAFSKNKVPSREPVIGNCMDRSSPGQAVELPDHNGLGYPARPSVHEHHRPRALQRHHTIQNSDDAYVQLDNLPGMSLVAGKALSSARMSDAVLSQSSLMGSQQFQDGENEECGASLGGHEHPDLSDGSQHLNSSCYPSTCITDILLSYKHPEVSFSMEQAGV
Chain of Phosphorylase b kinase regulatory subunit alpha, liver isoform (Homo sapiens) (P46019 whole entry, canonical isoform): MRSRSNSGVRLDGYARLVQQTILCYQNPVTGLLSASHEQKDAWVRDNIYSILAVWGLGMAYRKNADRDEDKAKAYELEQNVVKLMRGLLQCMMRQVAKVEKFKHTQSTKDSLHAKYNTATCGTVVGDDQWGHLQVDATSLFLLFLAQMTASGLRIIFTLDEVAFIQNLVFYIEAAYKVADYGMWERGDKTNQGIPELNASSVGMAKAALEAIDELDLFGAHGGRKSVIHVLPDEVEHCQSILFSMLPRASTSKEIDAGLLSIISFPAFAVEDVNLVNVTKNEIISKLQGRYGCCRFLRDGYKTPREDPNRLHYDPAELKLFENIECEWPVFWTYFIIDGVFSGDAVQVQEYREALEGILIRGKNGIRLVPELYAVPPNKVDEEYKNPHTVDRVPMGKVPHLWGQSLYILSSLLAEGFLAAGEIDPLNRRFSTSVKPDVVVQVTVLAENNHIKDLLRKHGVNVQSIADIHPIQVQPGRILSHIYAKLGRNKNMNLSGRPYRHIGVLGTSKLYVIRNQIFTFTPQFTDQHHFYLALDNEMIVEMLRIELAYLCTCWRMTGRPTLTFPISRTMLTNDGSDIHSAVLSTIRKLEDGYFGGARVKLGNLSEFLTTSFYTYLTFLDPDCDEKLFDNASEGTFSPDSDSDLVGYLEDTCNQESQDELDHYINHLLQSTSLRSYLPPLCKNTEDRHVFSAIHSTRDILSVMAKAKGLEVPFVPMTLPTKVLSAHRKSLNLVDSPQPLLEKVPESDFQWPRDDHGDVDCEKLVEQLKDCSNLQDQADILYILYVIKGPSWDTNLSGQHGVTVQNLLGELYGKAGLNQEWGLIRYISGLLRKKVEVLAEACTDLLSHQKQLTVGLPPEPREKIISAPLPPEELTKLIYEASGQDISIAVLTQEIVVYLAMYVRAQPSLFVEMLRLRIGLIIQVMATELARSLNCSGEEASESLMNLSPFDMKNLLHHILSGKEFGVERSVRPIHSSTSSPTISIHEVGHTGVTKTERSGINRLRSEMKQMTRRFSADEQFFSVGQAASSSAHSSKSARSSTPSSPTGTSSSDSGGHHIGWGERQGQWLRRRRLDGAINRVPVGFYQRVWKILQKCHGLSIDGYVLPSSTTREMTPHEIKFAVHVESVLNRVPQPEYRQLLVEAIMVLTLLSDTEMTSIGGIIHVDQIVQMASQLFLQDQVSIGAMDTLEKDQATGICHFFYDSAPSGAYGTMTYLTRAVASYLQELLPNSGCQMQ
Chain of Phosphatidylinositol 4-phosphate 5-kinase type-1 gamma (Homo sapiens) (O60331 whole entry): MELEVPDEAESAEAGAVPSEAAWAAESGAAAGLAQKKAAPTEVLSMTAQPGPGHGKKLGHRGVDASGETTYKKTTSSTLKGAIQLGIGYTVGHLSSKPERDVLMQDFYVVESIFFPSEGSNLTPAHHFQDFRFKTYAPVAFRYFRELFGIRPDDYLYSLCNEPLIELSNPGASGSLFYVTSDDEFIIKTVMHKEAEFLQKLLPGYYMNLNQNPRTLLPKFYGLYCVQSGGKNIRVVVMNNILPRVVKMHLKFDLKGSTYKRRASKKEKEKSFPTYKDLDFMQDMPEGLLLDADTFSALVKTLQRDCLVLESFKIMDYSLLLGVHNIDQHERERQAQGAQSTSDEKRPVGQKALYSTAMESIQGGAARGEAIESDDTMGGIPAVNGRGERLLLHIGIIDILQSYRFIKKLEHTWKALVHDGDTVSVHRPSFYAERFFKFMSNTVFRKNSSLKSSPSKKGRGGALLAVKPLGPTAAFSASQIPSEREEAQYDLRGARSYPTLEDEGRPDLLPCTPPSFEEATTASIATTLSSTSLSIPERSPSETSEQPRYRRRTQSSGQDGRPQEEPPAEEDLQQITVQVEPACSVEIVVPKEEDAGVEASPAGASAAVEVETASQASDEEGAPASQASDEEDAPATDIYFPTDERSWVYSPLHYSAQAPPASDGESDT
Chain of Cyclin-dependent kinase 9 (Homo sapiens) (P50750 whole entry): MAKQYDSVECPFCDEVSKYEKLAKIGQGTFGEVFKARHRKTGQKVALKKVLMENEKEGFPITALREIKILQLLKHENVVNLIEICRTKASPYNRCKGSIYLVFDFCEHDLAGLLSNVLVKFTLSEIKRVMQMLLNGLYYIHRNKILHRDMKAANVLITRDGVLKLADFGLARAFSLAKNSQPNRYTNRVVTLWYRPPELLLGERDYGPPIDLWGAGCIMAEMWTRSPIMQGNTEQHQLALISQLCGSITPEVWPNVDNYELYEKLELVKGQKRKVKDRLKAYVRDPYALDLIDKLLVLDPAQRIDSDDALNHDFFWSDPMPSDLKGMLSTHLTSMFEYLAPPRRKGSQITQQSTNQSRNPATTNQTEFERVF

CCS(=O)(=O)c1cc2cc(C[C@@](O)(CC(C)(C)c3ccc(F)cc3C(N)=O)C(F)(F)F)[nH]c2cn1
residual activity [1]: 38%
residual activity [2]: 100%
residual activity [3]: 100%
residual activity [4]: 100%
residual activity [5]: 77%
inhibition [6]: -5.76%
residual activity [7]: 100%
residual activity [8]: 100%
residual activity [9]: 77%
residual activity [10]: 86%
residual activity [11]: 89%
residual activity [12]: 81%
residual activity [13]: 80%
residual activity [14]: 92%
residual activity [15]: 98%
residual activity [16]: 100%
residual activity [17]: 100%
inhibition [18]: 19.5%
residual activity [19]: 56%
residual activity [20]: 99%
residual activity [21]: 69%
residual activity [22]: 99%
residual activity [23]: 100%
residual activity [24]: 80%
residual activity [25]: 94%
inhibition [26]: 18.2%
residual activity [27]: 98%
residual activity [28]: 66%
residual activity [29]: 78%
residual activity [30]: 55%
residual activity [31]: 97%
residual activity [32]: 100%
residual activity [33]: 100%
residual activity [34]: 80%
residual activity [35]: 90%
residual activity [36]: 0%
residual activity [37]: 78%
residual activity [38]: 99%
residual activity [39]: 73%
residual activity [40]: 100%
residual activity [41]: 100%
residual activity [42]: 96%
residual activity [43]: 100%
residual activity [44]: 100%

CCS(=O)(=O)c1cc2cc(C[C@](O)(CC(C)(C)c3ccc(F)cc3C(N)=O)C(F)(F)F)[nH]c2cn1
residual activity [1]: 45%
residual activity [2]: 100%
residual activity [3]: 100%
residual activity [4]: 100%
residual activity [5]: 100%
inhibition [6]: -4.94%
residual activity [7]: 100%
residual activity [8]: 100%
residual activity [9]: 84%
residual activity [10]: 89%
residual activity [11]: 92%
residual activity [12]: 85%
residual activity [13]: 100%
residual activity [14]: 100%
residual activity [15]: 100%
residual activity [16]: 100%
residual activity [17]: 97%
inhibition [18]: 11%
residual activity [19]: 100%
residual activity [20]: 100%
residual activity [21]: 97%
residual activity [22]: 99%
residual activity [23]: 98%
residual activity [24]: 100%
residual activity [25]: 100%
inhibition [26]: 13.1%
residual activity [27]: 100%
residual activity [28]: 86%
residual activity [29]: 100%
residual activity [30]: 100%
residual activity [31]: 90%
residual activity [32]: 88%
residual activity [33]: 100%
residual activity [34]: 74%
residual activity [35]: 92%
residual activity [36]: 81%
residual activity [37]: 81%
residual activity [38]: 100%
residual activity [39]: 99%
residual activity [40]: 100%
residual activity [41]: 100%
residual activity [42]: 100%
residual activity [43]: 98%
residual activity [44]: 100%

Reference: ChEMBL document CHEMBL4507277
